Earlier results on six substances are cited in patent US10610595B2, “Stabilized pharmaceutical formulations of insulin analogues and/or insulin derivatives” (SANOFI, priority 2014, dated 2020).

This data set has as its system blood glucose level. The following applies: for amount corresponding to 100 U: product information.

For insulin aspart, the “amount corresponding to 100 U” value is listed as 3.5 mg.

Regarding insulin glargine, the “amount corresponding to 100 U” value is 3.64 mg.

Take insulin glulisine: the “amount corresponding to 100 U” value is 3.49 mg. On to insulin lispro, for which the “amount corresponding to 100 U” value was 3.5 mg. On to insulin detemir [insulin determir], for which the “amount corresponding to 100 U” value is listed as 14.2 mg.

As for human insulin, the “amount corresponding to 1 U” value (Lill, Pharmazie in unserer Zeit 2001) is listed as “approximately 35 μg”.
